Assays:
[1] = target: T1, Saccharomyces cerevisiae α-glucosidase (Saccharomyces cerevisiae, UniProt P53341); test: biochemical; details: mean ± SD, at least three experiments; substrate p-nitrophenyl glucopyranoside, pH 6.8, 37 °C; read-out: IC50 (in vitro α-glucosidase inhibitory activity)
T1 construct: purchased Sigma-Aldrich
Description: The target substituted imidazo[1,2-c]quinazolines 6a–c and 11a–o were evaluated for their in vitro Saccharomyces cerevisiae α-glucosidase inhibitory activities to investigate the role of substituents on the imidazole moiety and the phenyl ring originated from benzaldehyde moieties.
α-Glucosidase enzyme ((EC3.2.1.20, Saccharomyces cerevisiae, 20 U mg^−1) and substrate (p-nitrophenyl glucopyranoside) were purchased from Sigma-Aldrich. Enzyme was prepared in potassium phosphate buffer (pH 6.8, 50 mM), as well as substituted benzo[4,5]imidazo[1,2-c]quinazoline 6a-c and highly-substituted imidazo[1,2-c]quinazolines 11a–o were dissolved in DMSO (10% final concentration). The various concentrations of these compounds ([…]), enzyme solution ([…]) and potassium phosphate buffer ([…]) were added in the 96-well plate and incubated at 37 °C for 10 min. Afterwards, the substrate ([…], 4 mM) was added to the mentioned mixture and allowed to incubate at 37 °C for 20 min. […] The percentage of enzyme inhibition was calculated using Eq. (6) and IC50 values were obtained from non-linear regression curve using the Logit method.6 %Inhibition=Abscontrol-Abssample/Abscontrol×100

α-glucosidase [2] = target: T2, α-glucosidase (Saccharomyces cerevisiae, UniProt P53341); test: Thermodynamic analysis of binding to α-glucosidase; design: purchased Sigma-Aldrich
T2 sequence (P53341 whole entry): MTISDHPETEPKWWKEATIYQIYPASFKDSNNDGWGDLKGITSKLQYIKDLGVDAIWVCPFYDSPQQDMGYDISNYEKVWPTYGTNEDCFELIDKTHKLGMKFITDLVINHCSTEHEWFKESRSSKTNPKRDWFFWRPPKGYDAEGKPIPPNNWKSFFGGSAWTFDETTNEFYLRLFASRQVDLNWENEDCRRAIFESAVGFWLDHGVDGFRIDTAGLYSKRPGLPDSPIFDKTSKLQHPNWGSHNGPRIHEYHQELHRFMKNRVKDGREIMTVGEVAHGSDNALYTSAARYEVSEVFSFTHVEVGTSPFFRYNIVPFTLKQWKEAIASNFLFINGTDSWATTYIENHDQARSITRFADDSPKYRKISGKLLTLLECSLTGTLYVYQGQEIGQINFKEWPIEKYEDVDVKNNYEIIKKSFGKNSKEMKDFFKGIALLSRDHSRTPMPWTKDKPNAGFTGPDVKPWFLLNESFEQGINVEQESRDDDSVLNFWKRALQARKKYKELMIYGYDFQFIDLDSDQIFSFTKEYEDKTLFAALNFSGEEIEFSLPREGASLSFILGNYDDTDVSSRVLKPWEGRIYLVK
Excerpt: This fluorescent intensity data was plotted as a function of temperature and binding constants; therefore, thermodynamic profile including ΔG (free energy change), ΔH (enthalpy change), and ΔS (entropy change) could be computed to determine the type of non-covalent forces between imidazo[1,2-c]quinazoline 11j and binding site of α‑glucosidase. These forces between the protein and inhibitor can be categorized into four groups: hydrogen bond, van der Waals forces, electrostatic attraction, and hydrophobic interactions. To identify the type of interactions in present study, thermodynamic parameters must be calculated using following equations:4 lnKA2/KA1=ΔH/R1/T2-1/T1 5 ΔG=-RT ln KA=ΔH-TΔS
Already, there was some information including binding constants (KA2 = 36.6 × 10^4 and KA1 = 40.5 × 10^4) as well as initial and final temperatures (T1 = 20 ℃ (293 K) and T2 = 60 ℃ (333 K)). Therefore, using Eq. (4), ΔH is obtained − 2.17 (kJ mol^–1) and subsequently using Eq. (5), ΔG and ΔS values are calculated − 20.6 (kJ mol^–1) and 62.9 (J mol^–1 K^–1), respectively.
Considering the sign of these thermodynamic parameters, the type of non-covalent force could be determined as follow: (1) ΔH > 0, ΔS > 0, hydrophobic interactions; (2) ΔH < 0, ΔS > 0, van der Waals forces; (3) ΔH < 0, ΔS < 0, hydrogen bond and van der Waals interactions; and (4) ΔH < 0, ΔS > 0, electrostatic interactions.

α-glucosidase [3] = target: T2, α-glucosidase; test: Circular dichroism spectroscopy, secondary structure content of the enzyme; design: purchased Sigma-Aldrich; details: inhibitor 12.4 μM
Description: The difference between the absorption of right and left circularly polarized light is measured in circular dichroism spectroscopy (CD) in order to reveal the chiral environment around amino acid residues. The CD spectrum in the far ultraviolet region ranged from 190 to 240 nm is mainly used to provide valuable information about the arrangement of protein bonds and secondary structure of the proteins in dilute solutions. There are several principal conformations like α-helix, extended β structure (or β-sheet), β-turn, and random coil (which are unordered structures). They are characterized as follow: α-helix structures by negative CD bands at 222 and 208 nm and a positive CD band at approximately 190 nm; β-sheet structures by a negative CD band in the region of 210–220 nm; β-turn structures by a negative CD band between 180 and 190 nm; and the spectra of random coil by a characteristic negative CD band in region of 200 nm[49],[50].
To study the impact of imidazo[1,2-c]quinazoline 11j on the secondary structure of α-glucosidase (Fig. 4b), the CD spectra (180–250 nm) was measured and analyzed using the CDNN software to be compared with the native enzyme (Fig. 4a). […] Moreover, this compound can change the secondary structure of α-glucosidase, resulting to inhibit its performance.

α-glucosidase [4] = target: T2, α-glucosidase; test: Fluorescence spectroscopy (quenching) measurements; format: binding; design: purchased Sigma-Aldrich
Description: In present study, fluorescence spectroscopy measurement was performed between imidazo[1,2-c]quinazoline 11j and the active site of enzyme using a Synergy HTX multi-mode reader (Biotek Instruments, Winooski, VT, USA) equipped with a quartz cuvette of 10 mm. The excitation wavelength was 280 nm, and the emission spectra were reported at five different temperatures in the range from 300 to 450 nm with 10 accumulations for each collection point. The emission spectrum was adjusted for the background fluorescence from the buffer solution and for the inner filter effect promoted by the inhibitors (Fig. 5).
There are two types of fluorescence quenching: dynamic and static. Dynamic quenching arises from the collisional encounter between the fluorophore (tryptophan residues) and the quencher (inhibitor). […] Therefore, the biding parameters can be determined as follow:
The reaction is determined as P + D → DnP in which P is the protein, D is the drug molecule (inhibitor), and DnP is the new complex molecule. The binding constant for this complex for this complex, denoted as KA, is calculated using Eq. (1). […] Since the number of the binding site of protein and drug is n and 1, respectively, the equivalent concentration of the complex DnP is n[DnP]. Moreover, the equivalent concentration of the protein is n[P], and the equivalent concentration of the drug is [D]:1 KA=nDnP/DnP
The total concentration of protein is [Pt], and the total concentration of the drug is [Dt]; therefore, [Pt] = [Pf] + [DnP] and [Df] = [Dt]−n[DnP]. Since protein (P) is the only fluorescence in present study, thus:2 F0/F=Pt/Pf
F and F0 are the fluorescence intensity of protein in the presence and absence of inhibitor, respectively. Therefore, the relationship between the fluorescence intensity and the total concentration of the drug could be deduced:3 F0/F=KADtF0/F0-F-n KAPt
As the total concentration of protein was kept at a constant value (at 46 nM), while the total concentration of the drug was changed. Using the Eq. (3), a plot of F0/F Vs. [Dt] F0/(F0−F) was obtained, as depicted in Fig. 6.
To this aim, different solutions containing different concentrations (0 to 1.0 µM) of the inhibitor and α-glucosidase (3 ml, 0.1 U ml^−1) were held for 10 min to equilibrate before measurements. Moreover, the fluorescence of the buffer containing compound 11j in the absence of the enzyme were subtracted as the background fluorescence. Afterwards, at the excitation wavelength of 280 nm, the fluorescence emission spectra were measured from 300 to 450 nm using a Synergy HTX multi-mode reader (Biotek Instruments, Winooski, VT, USA) equipped with a 1.0 cm quartz cell holder.

α-glucosidase [5] = target: T2, α-glucosidase; test: Enzyme kinetic study (Lineweaver–Burk plot)
Description: [I] is the concentration of inhibitor.
Therefore, the slope of Lineweaver Burk plot is equal to:10 Slope=Km/Vmax1+I/KI
The Kmapp value is calculated by Eq. (6):11 Kmapp=Km1+I/KI
[I], Eq. (7) can be used for the calculation of KI[59],[60]:12 Kmapp=Km+Km/KII

T1 sequence (P53341 whole entry): as above

SMILES | IC50 [1] [µM] | other results
COc1cc(-c2nc3ccccc3c3nc(-c4ccccc4)c(-c4ccccc4)n23)cc(Br)c1OC [11o, 5-(3-bromo-4,5-dimethoxyphenyl)-2,3-diphenylimidazo[1,2-c]quinazoline] | 154.9 ± 0.36 | –
COc1ccc(-c2nc3ccccc3c3nc4ccccc4n23)cc1 [6c, 6-(4-methoxyphenyl)benzo[4,5]imidazo[1,2-c]quinazoline] | 124.3 ± 0.37 | –
Clc1ccc(-c2nc3ccccc3c3nc4ccccc4n23)cc1 [6b, 6-(4-chlorophenyl)benzo[4,5]imidazo[1,2-c]quinazoline] | 308.33 ± 0.06 | –
c1ccc(-c2nc3ccccc3c3nc4ccccc4n23)cc1 [6a, 6-phenylbenzo[4,5]imidazo[1,2-c]quinazoline] | 256.48 ± 0.14 | –
COc1cc(-c2nc3ccccc3c3nc(-c4ccccc4)c(-c4ccccc4)n23)cc(OC)c1OC [11n, 2,3-diphenyl-5-(3,4,5-trimethoxyphenyl)imidazo[1,2-c]quinazoline] | 46.73 ± 0.07 | –
COc1cccc(-c2nc3ccccc3c3nc(-c4ccccc4)c(-c4ccccc4)n23)c1OC [11j, 5-(2,3-dimethoxyphenyl)-2,3-diphenylimidazo[1,2-c]quinazoline] | – | ΔS (entropy change) (α-glucosidase [2]; Eq. (5)): 62.9 J mol^–1 K^–1; acting non-covalent force between inhibitor and enzyme (α-glucosidase [2]; from signs of ΔH and ΔS): electrostatic forces; α-Helix content of α-glucosidase (α-glucosidase [3]; native enzyme 28.8): 50.3%; ꞵ-Turn content of α-glucosidase (α-glucosidase [3]; native enzyme 28.8): 49.7%; Random coil content of α-glucosidase (α-glucosidase [3]; native enzyme 42.4): 0%; number of binding sites n (α-glucosidase [4]; 20 ℃): 0.3; binding constant KA (α-glucosidase [4]; 20 ℃, protein 46 nM): 40.5 × 10^4 L mol^–1 s^–1; binding constant KA (α-glucosidase [4]; 60 ℃): 36.6 × 10^4 L mol^–1 s^–1; fluorescence quenching mechanism (α-glucosidase [4]; tryptophan residues as fluorophores): static quenching; Ki (α-glucosidase [5]): 11 µM; type of inhibition (α-glucosidase [5]; Lineweaver–Burk plot: Km increased, Vmax did not change): competitive
CN(C)c1ccc(-c2nc3ccccc3c3nc(-c4ccccc4)c(-c4ccccc4)n23)cc1 [11f, 4-(2,3-diphenylimidazo[1,2-c]quinazolin-5-yl)-N,N-dimethylaniline] | 168.36 ± 0.15 | –
Clc1ccc(-c2nc3ccccc3c3nc(-c4ccccc4)c(-c4ccccc4)n23)cc1 [11b, 5-(4-chlorophenyl)-2,3-diphenylimidazo[1,2-c]quinazoline] | 273.28 ± 0.09 | –

The next lines start with results.

IC50 [1] [µM] | SMILES | other results
124.5 ± 0.29 | Cc1ccc(-c2nc3ccccc3c3nc(-c4ccccc4)c(-c4ccccc4)n23)cc1 [11e, 5-(4-methylphenyl)-2,3-diphenylimidazo[1,2-c]quinazoline] | –
47.92 ± 0.18 | COc1cccc(-c2nc3ccccc3c3nc(-c4ccccc4)c(-c4ccccc4)n23)c1 [11h, 5-(3-methoxyphenyl)-2,3-diphenylimidazo[1,2-c]quinazoline] | –
64.29 ± 0.54 | COc1ccc(OC)c(-c2nc3ccccc3c3nc(-c4ccccc4)c(-c4ccccc4)n23)c1 [11l, 5-(2,5-dimethoxyphenyl)-2,3-diphenylimidazo[1,2-c]quinazoline] | –
253.1 ± 0.26 | Clc1ccccc1-c1nc2ccccc2c2nc(-c3ccccc3)c(-c3ccccc3)n12 [11d, 5-(2-chlorophenyl)-2,3-diphenylimidazo[1,2-c]quinazoline] | –
82.64 ± 0.03 | COc1ccc(-c2nc3ccccc3c3nc(-c4ccccc4)c(-c4ccccc4)n23)cc1 [11g, 5-(4-methoxyphenyl)-2,3-diphenylimidazo[1,2-c]quinazoline] | –
209.15 ± 0.04 | c1ccc(-c2nc3c4ccccc4nc(-c4ccccc4)n3c2-c2ccccc2)cc1 [11a, 2,3,5-triphenylimidazo[1,2-c]quinazoline] | –
24.25 ± 0.13 | COc1ccccc1-c1nc2ccccc2c2nc(-c3ccccc3)c(-c3ccccc3)n12 [11i, 5-(2-methoxyphenyl)-2,3-diphenylimidazo[1,2-c]quinazoline] | –
14.32 ± 0.05 | COc1ccc(-c2nc3ccccc3c3nc(-c4ccccc4)c(-c4ccccc4)n23)c(OC)c1 [11k, 5-(2,4-dimethoxyphenyl)-2,3-diphenylimidazo[1,2-c]quinazoline] | –
246.49 ± 0.18 | Clc1cccc(-c2nc3ccccc3c3nc(-c4ccccc4)c(-c4ccccc4)n23)c1 [11c, 5-(3-chlorophenyl)-2,3-diphenylimidazo[1,2-c]quinazoline] | –
21.6 ± 0.32 | COc1ccc(-c2nc3ccccc3c3nc(-c4ccccc4)c(-c4ccccc4)n23)cc1OC [11m, 5-(3,4-dimethoxyphenyl)-2,3-diphenylimidazo[1,2-c]quinazoline] | –

— PMC10514295, “Imidazo[1,2-c]quinazolines as a novel and potent scaffold of α-glucosidase inhibitors: design, synthesis, biological evaluations, and in silico studies” (Scientific Reports, 2023)
